# Reference: patent US9101138B2, “Methods and compositions utilizing lactams derived from camphor, verbenone or cat thyme oil for repelling blood-sucking and biting insects, ticks and mites” (The United States of America, as represented by the …, priority 2013, dated 2015)
# How the values were obtained:
# Assay type in all cases: in vivo
# Aedes aegypti = assay: Free choice assay against mosquitoes (feeding deterrence assay in glove box); conditions: treated membrane over human blood, 20 min; for EC50: median effective dose to repel 50% of mosquitoes
# Description: Free Choice Assay against mosquitoes (compact repellency): Mosquitoes used were nulliparous female Aedes aegypti (Red eye Liverpool strain). They were laboratory-reared and maintained at 27° C. and 80% RH under a photoperiod of 12:12 (L:D) h by using standard mosquito rearing procedures (Rutledge, C. C., et al., J. Med. Entomol., 14: 536-541 (1978)). Larvae were fed a diet of ground tropical fish flakes and adults were fed a 10% sucrose solution. Adult female mosquitoes used for experimentation were between 5 and 15 d old and starved (provided only water) for 24 h before testing. The test system consisted of a mosquito blood-feeder, a constant-temperature water circulator (to maintain the temperature of the blood at 37° C.) and a specially designed cage. The mosquito blood-feeder contained five circular blood reservoirs, each of which was filled with outdated human blood titrated with adenosine triphosphate. The wells were then covered with sausage membrane and secured using high vacuum grease. Absolute ethanol was used as a solvent and diluent for candidate repellents. Each diluted repellent solution was then randomly applied to the membrane surface at concentrations of 0.02, 0.04, 0.08 and 0.16 mg/cm^2. A separate membrane covered well served as a control. 250 mosquitoes were exposed to the treated membranes on the blood reservoirs ad libitum by opening the sliding door in the floor of the test cage. The number of mosquitoes feeding on each well was counted and noted at two-minute intervals for 20 minutes using the total number of feeding mosquitoes as a response. Each test was replicated for a minimum of four times to obtain a statistically valid sample size for analysis. The median effective dose to repel 50% of the mosquito test population was then calculated by the method of Goldstein (Goldstein, A., et al., 1974. Principles of Drug Action: The Basis of Pharmacology, 2nd ed., John Wiley and Sons, New York, N.Y., 854 p) (chemical sensitivity levels calculated from the dose-response regression equation) for single curves with graded responses. Significant differences were then determined by comparing the 95% confidence level among effective doses.
# Aedes aegypti females = assay: Feeding deterrency assay utilising K&D module; conditions: 25 nmol\cm^2
# Description: Feeding Deterrency assay utilising K&D module (Klun, J. A., and M. Debboun, J. Med. Entomol., 37: 177-181 (2000); Klun, J. A., et al., 40: 293-299 (2003)): Test compounds were bioassayed for their feeding deterrency against Aedes aegypti females in K&D module assay. […] Feeding deterrency was evaluated as proportion feeding. Ethanol was used as control.
# [1] = tested on: Sand Fly (Phlebotomus papatasi); assay: Sand fly blood-feeding assay for testing repellents and feeding deterrents; conditions: 2 h; for Mean % Feeding / Mean % Inhibition: n = 3; for effectiveness (comparison between compounds): sand fly blood feeding
# Source text: Sand Fly (Phlebotomus papatasi) blood-feeding assay for testing repellents and feeding deterrents: A pig intestine-based membrane feeing system (Watnaporn, D., et al., Proceedings of VIIIth Sir Dorabjee Tata International Symposium: Arthropod born viral infections-Current status and research, Pages 417-424, 2008) has been used for blood-feeding of female sand flies in colony maintenance. The same technique has been used for testing repellency and antifeeding effects of several new compounds. A circular area of the fabric mesh on top of the test container that matches the size of the glass feeder was treated with the test compound by applying the test solution using a Q-tip. After a group of 30 females and 15 males was placed into the test container, a glass feeder filled with cow blood was placed on top of the treated area in the center of the fabric mesh that was secured on top of the container. Sand flies were allowed to feed for 2 h before the number of blood-fed females was in each feeding container counted.
# Female sand flies in the untreated control achieved a 32% to 61% blood feeding rate during the test period (2 h) when a group of 30 females and 15 males was placed in a feeding pot and fed through a fine mesh screen using an artificial membrane feeding system (Table 1 [?]).
# [2] = tested on: adult lone star ticks, Amblyomma americanum; assay: Tick repellency: vertical filter paper bioassay; conditions: for % repelled: ticks exposed 10-15 minutes after application
# Description: Tick repellency: Vertical filter paper bioassay against adult lone star ticks, Amblyomma americanum, and nymphs was conducted with selected lactams, lactones and ketones. Adult ticks were exposed 10-15 minutes after application of the candidate compounds. Repellency was measured in % repelled from the treated surface at various concentrations.
Compound,EC50 (Aedes aegypti),EC95 (Aedes aegypti),% not biting (Aedes aegypti females),mean bites\6 (Aedes aegypti females),total Bites\120 (Aedes aegypti females),Mean % Feeding ([1]; concentration 0.001%),Mean % Inhibition ([1]; concentration 0.001%),Mean % Feeding ([1]; concentration 0.01%),Mean % Inhibition ([1]; concentration 0.01%),% repelled ([2]; Conc. 125 ug),% repelled ([2]; Conc. 500 ug),% repelled ([2]; Conc. 2000 ug),also measured
"CC12CCC(CNC1=O)C2(C)C (centres unmarked) [Compound 1, Camphor lactam]",0.0355 mg/cm^2,0.166 mg/cm^2,91%,0.55,11,2.2%,97.0%,0.0%,100.0%,26.7%,66.7%,73.3%,Mean % Feeding ([1]; concentration 0.00001%): 6.7%; Mean % Inhibition ([1]; concentration 0.00001%): 90.9%; Mean % Feeding ([1]; concentration 0.0001%): 3.3%; Mean % Inhibition ([1]; concentration 0.0001%): 95.5%
"CCCN1CC2CCC(C)(C1=O)C2(C)C (centres unmarked) [Compound 1a, N-propyl camphor lactam]",0.0282 mg/cm^2,0.102 mg/cm^2,96%,0.25,5,1.1%,98.5%,0.0%,100.0%,26.7%,100%,93.3%,Mean % Feeding ([1]; concentration 0.00001%): 5.6%; Mean % Inhibition ([1]; concentration 0.00001%): 92.4%; Mean % Feeding ([1]; concentration 0.0001%): 6.7%; Mean % Inhibition ([1]; concentration 0.0001%): 90.9%
"C=C1C(=O)OC[C@H]2[C@@H]1CC[C@@H]2C [Compound 6, Dolicho lactone (D)]",,,87%,0.8,16,,,,,,,,
"C=C1CNC(=O)C2C(C)CCC12 (centres unmarked) [Compound 3, Dolicho (C) lactam]",0.0322 mg/cm^2,0.173 mg/cm^2,92%,0.5,10,,,,,,,,effectiveness (comparison between compounds) [1]: more effective than dolicholactone
"CC(C)=CCCC(C)C1C=CC(=O)CC1 (centres unmarked) [Compound 7a, 4-(1,5-Dimethylhex-4-enyl)cyclohex-2-en-1-one]",,,,,,,,,,73.3%,96.7%,82.5%,% repelled ([2]; Conc. 31 ug): 20%; % repelled ([2]; Conc. 63 ug): 53.3%; lowest concentration at which adult ticks were repelled ([2]; filter paper bioassay): 31 µg
N-propyl dihydro verbenone lactam [Compound 2a],0.0561 mg/cm^2,0.264 mg/cm^2,92%,0.5,10,,,,,,,,
"C=C1COC(=O)[C@H]2[C@@H]1CC[C@@H]2C [Compound 5, Dolicholactone (C)]",,,89%,0.7,14,,,,,,,,
"CCN(CC)C(=O)c1cccc(C)c1 [DEET, N,N-diethyl-m-toluamide, reference compound]",,,94%,0.4,8,,,,,5%,68.3%,95.7%,repellency ([2]; at 125 and 64 ug concentrations): failed to repel ticks
"C=C1CN(CCC)C(=O)C2C(C)CCC12 (centres unmarked) [Compound 3a, N-propyl dolicho-C-lactam]",0.0317 mg/cm^2,0.117 mg/cm^2,98%,0.15,3,25.6%,65.1%,17.8%,75.8%,83.6%,100%,100%,Mean % Feeding ([1]; concentration 0.02%): 8.9%; Mean % Inhibition ([1]; concentration 0.02%): 87.9%; Mean % Feeding ([1]; concentration 0.04%): 5.6%; Mean % Inhibition ([1]; concentration 0.04%): 92.4%; effectiveness (comparison between compounds) [1]: more effective than dolicholactam; % repelled ([2]; Conc. 63 ug): 20%
